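Compound exposure: 48 hours, 5 concentrations, 96-well plates. GI50 is the concentration that inhibits growth by half.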 Activity calls are given as the source filed them. Rule as the data show it: active = GI50 up to about 1.1 µM and inactive = higher.
Legend:
Assay in all cases: DTP human tumour cell line panel, 48 h
[1] = system: A549
[2] = system: SF-539
[3] = system: SF-268
[4] = system: HT-29
[5] = system: EKVX
[6] = system: RPMI-8226
[7] = system: ACHN
[8] = system: SR
[9] = system: M14
[10] = system: SNB-75
[11] = system: SF-295
[12] = system: TK-10
[13] = system: SK-MEL-5
[14] = system: NCI-H460
[15] = system: COLO 205
[16] = system: UACC-257
[17] = system: LXFL 529
[18] = system: KM-20L2
[19] = system: DLD-1
[20] = system: RXF 631

| Structure (SMILES) | GI50 [1] | GI50 [2] | GI50 [3] | GI50 [4] | GI50 [5] | GI50 [6] | GI50 [7] | GI50 [8] | GI50 [9] | GI50 [10] | GI50 [11] | GI50 [12] | GI50 [13] | GI50 [14] | GI50 [15] | GI50 [16] | GI50 [17] | GI50 [18] | GI50 [19] | GI50 [20] |
| --- | --- | --- | --- | --- | --- | --- | --- | --- | --- | --- | --- | --- | --- | --- | --- | --- | --- | --- | --- | --- |
| COc1ccc2oc(=N)c(C(=O)Nc3ccccc3)cc2c1 | 34.3 µM (inactive) | 20.3 µM (inactive) | 20.6 µM (inactive) | 64.6 µM (inactive) | 26.8 µM (inactive) | 15.7 µM (inactive) | 13.7 µM (inactive) | 7.11 µM (inactive) | 38.1 µM (inactive) | 10.4 µM (inactive) | 16 µM (inactive) | 57.5 µM (inactive) | 25.8 µM (inactive) | 45.5 µM (inactive) | 30.1 µM (inactive) | 62.5 µM (inactive) | – | – | – | – |
| COc1cc([C@@H]2c3cc4c(cc3[C@@H](OC3OC5COC(C)OC5C(O)C3O)[C@H]3COC(=O)[C@H]23)OCO4)cc(OC)c1O (stereo not given in full) | 3.61 µM (inactive) | 3.27 µM (inactive) | 7.6 µM (inactive) | 28.8 µM (inactive) | 27.7 µM (inactive) | – | – | – | – | 12.1 µM (inactive) | 5.92 µM (inactive) | – | 5.48 µM (inactive) | 0.533 µM (active) | 40.3 µM (inactive) | 37.2 µM (inactive) | 26.5 µM (inactive) | 70.8 µM (inactive) | 37.2 µM (inactive) | – |
| COC(=O)C(Cc1cc(OC)c(OC)c(OC)c1)(NC(=O)c1ccccc1)P(=O)(OC)OC (stereo not given) | > 100 µM (inactive) | > 100 µM (inactive) | > 100 µM (inactive) | > 100 µM (inactive) | > 100 µM (inactive) | > 100 µM (inactive) | > 100 µM (inactive) | > 100 µM (inactive) | > 100 µM (inactive) | > 100 µM (inactive) | > 100 µM (inactive) | > 100 µM (inactive) | > 100 µM (inactive) | > 100 µM (inactive) | > 100 µM (inactive) | > 100 µM (inactive) | > 100 µM (inactive) | > 100 µM (inactive) | > 100 µM (inactive) | > 100 µM (inactive) |
| CCC(C)C1NC(=O)CNC(=O)C2Cc3c([nH]c4cc(O)ccc34)[S+]([O-])CC(NC(=O)CNC1=O)C(=O)NC(CC(=O)O)C(=O)N1CC(O)CC1C(=O)NC(C(C)C(O)CO)C(=O)N2 (stereo not given) | 4.58 µM (inactive) | 0.45 µM (active) | 1.64 µM (inactive) | 28.8 µM (inactive) | 1.98 µM (inactive) | 20.3 µM (inactive) | – | – | – | 0.918 µM (active) | 1.51 µM (inactive) | – | 2.43 µM (inactive) | 2.11 µM (inactive) | 1.41 µM (inactive) | 2.44 µM (inactive) | – | 31.6 µM (inactive) | 12.4 µM (inactive) | – |
| COc1ccc(CC(N)=O)cc1OC | > 1250 µM (inactive) | > 1250 µM (inactive) | > 1250 µM (inactive) | > 1250 µM (inactive) | > 1250 µM (inactive) | > 1250 µM (inactive) | – | – | – | 769 µM (inactive) | > 1250 µM (inactive) | – | > 1250 µM (inactive) | > 1250 µM (inactive) | > 1250 µM (inactive) | 703 µM (inactive) | – | > 1140 µM (inactive) | > 1250 µM (inactive) | – |
| CN(CCO)/N=N/c1n[nH]cc1C(N)=O | > 100 µM (inactive) | > 100 µM (inactive) | > 100 µM (inactive) | > 100 µM (inactive) | > 100 µM (inactive) | > 100 µM (inactive) | – | – | – | > 100 µM (inactive) | > 100 µM (inactive) | – | > 100 µM (inactive) | > 100 µM (inactive) | > 100 µM (inactive) | > 100 µM (inactive) | – | > 86.7 µM (inactive) | > 100 µM (inactive) | – |
| CC(=O)NC1C(O)CC(OCCCSCCN)(C(=O)O)OC1C(O)C(O)CO (stereo not given) | > 100 µM (inactive) | > 100 µM (inactive) | > 100 µM (inactive) | > 100 µM (inactive) | > 100 µM (inactive) | > 100 µM (inactive) | > 100 µM (inactive) | > 100 µM (inactive) | > 100 µM (inactive) | > 100 µM (inactive) | > 100 µM (inactive) | > 100 µM (inactive) | > 100 µM (inactive) | > 100 µM (inactive) | > 100 µM (inactive) | > 100 µM (inactive) | > 100 µM (inactive) | > 100 µM (inactive) | > 100 µM (inactive) | > 100 µM (inactive) |
| O=[N+]([O-])c1cccc2c1[nH]c1c(-c3ccccc3)nccc12 | 2.67 µM (inactive) | 3.19 µM (inactive) | 4.04 µM (inactive) | 1.58 µM (inactive) | 3.21 µM (inactive) | 1.46 µM (inactive) | – | – | – | 2.4 µM (inactive) | 3.08 µM (inactive) | – | 1.53 µM (inactive) | 2.33 µM (inactive) | 2.02 µM (inactive) | 1.94 µM (inactive) | – | 2.45 µM (inactive) | 2.85 µM (inactive) | – |
| OCC#CCNCl | > 100 µM (inactive) | > 100 µM (inactive) | > 100 µM (inactive) | > 28.1 µM (inactive) | > 100 µM (inactive) | > 100 µM (inactive) | – | – | – | > 100 µM (inactive) | > 100 µM (inactive) | – | > 100 µM (inactive) | > 100 µM (inactive) | > 100 µM (inactive) | > 73.6 µM (inactive) | – | > 100 µM (inactive) | > 100 µM (inactive) | – |

From ChEMBL document CHEMBL1201862, “PubChem BioAssay data set” (2004)
